This passage reports TGI results from PubChem BioAssay (NCI).

SMILES strings stand for the structures.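 Method: 48-hour compound exposure of cells in 96-well plates, five concentrations, linear interpolation of endpoints. TGI: total growth inhibition.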

Some test systems named below: 786-0 renal; A498 renal; CCRF-CEM leukemia; COLO 205 colon; HCC-2998 colon; HCT-116 colon; HT29 colon; M14 melanoma; MALME-3M melanoma; MCF7 breast; MDA-MB-231 breast; MDA-N; NCI-H522 lung; OVCAR-4 ovarian; SK-MEL-2 melanoma; SR leukemia; T-47D breast; UACC-257 melanoma; UACC-62 melanoma.
Holding throughout (assay): DTP human tumour cell line panel, 48 h

Turning to `CCOC(=O)NC(C(=O)OCC)(N1CCN(c2cc3c(cc2F)c(=O)c(C(=O)O)cn3CC)CC1)C(F)(F)F` (centres undefined), the TGI in the assay on 786-0 renal, in the assay on A498 renal, with CCRF-CEM leukemia, in the assay with COLO 205 colon, in the assay with HCC-2998 colon and in the assay on HCT-116 colon was more than 100 µM each time. In addition, the concentration for total growth inhibition (TGI) with HT29 colon, with M14 melanoma, in the assay on MALME-3M melanoma, in the assay with MCF7 breast, in the assay on MDA-MB-231 breast and with MDA-N was more than 100 µM in each case. Besides, the TGI in the assay with NCI-H522 lung, in the assay on OVCAR-4 ovarian, in the assay on SK-MEL-2 melanoma, in the assay on SR leukemia, in the assay on T-47D breast and in the assay on UACC-257 melanoma was more than 100 µM in each case. This compound also registered a total growth inhibition concentration (TGI) with UACC-62 melanoma of more than 100 µM.

`CCOC(=O)C1=c2[nH]c3cccc4cccc(c43)n2C(=O)CC1c1ccccc1` (centres undefined): the TGI in the assay on 786-0 renal, in the assay with A498 renal, with CCRF-CEM leukemia, with COLO 205 colon, in the assay with HCC-2998 colon and in the assay with HCT-116 colon was more than 100 µM throughout. Besides, the TGI with HT29 colon, with M14 melanoma, in the assay with MALME-3M melanoma, in the assay on MCF7 breast, with MDA-MB-231 breast and in the assay with MDA-N was more than 100 µM throughout. In addition, the TGI in the assay on NCI-H522 lung, in the assay on OVCAR-4 ovarian, in the assay with SK-MEL-2 melanoma, in the assay with SR leukemia, in the assay on T-47D breast and in the assay on UACC-257 melanoma was more than 100 µM in each case. This compound came in with a TGI in the assay on UACC-62 melanoma of more than 100 µM.

On to `Cn1cc(S(=O)(=O)NC(=O)Nc2ccc(Cl)cc2)c2ccccc21`, for which the TGI in the assay with 786-0 renal, in the assay on A498 renal, with CCRF-CEM leukemia, with COLO 205 colon, in the assay with HCC-2998 colon and with HCT-116 colon was more than 100 µM each time. For the same compound, the TGI in the assay with HT29 colon, in the assay with M14 melanoma, in the assay on MALME-3M melanoma, with MCF7 breast, with MDA-MB-231 breast and with MDA-N was more than 100 µM each time. Further, the TGI with NCI-H522 lung was 69.3 µM; with OVCAR-4 ovarian, more than 100 µM; in the assay with SK-MEL-2 melanoma it was more than 100 µM; in the assay with SR leukemia, more than 100 µM; in the assay with T-47D breast it was more than 100 µM; in the assay with UACC-257 melanoma, more than 100 µM. This compound also had a TGI in the assay on UACC-62 melanoma of 79.9 µM.

Turning to `CC(C)COC(=O)OC(=O)c1ccc(N(C)Cc2cnc3nc(N)nc(N)c3n2)cc1`, the concentration for total growth inhibition (TGI) in the assay on 786-0 renal, in the assay with A498 renal, in the assay on CCRF-CEM leukemia, with COLO 205 colon, with HCC-2998 colon and with HCT-116 colon was more than 100 µM each time. The TGI in the assay on HT29 colon, in the assay on M14 melanoma, in the assay with MALME-3M melanoma, in the assay with MCF7 breast, in the assay on MDA-MB-231 breast and in the assay on MDA-N was more than 100 µM throughout. Also, the TGI in the assay on NCI-H522 lung, in the assay on OVCAR-4 ovarian, in the assay on SK-MEL-2 melanoma, in the assay on SR leukemia, with T-47D breast and in the assay with UACC-257 melanoma was more than 100 µM throughout. This compound gave a TGI in the assay on UACC-62 melanoma of more than 100 µM.

`Cc1ccc(S(=O)(=O)N2c3ccccc3[C@H]3CCC=C[C@H]32)cc1`: the TGI in the assay with 786-0 renal is more than 100 µM; in the assay with A498 renal, 46.2 µM; with CCRF-CEM leukemia, more than 87.2 µM; in the assay on COLO 205 colon, 24.6 µM; in the assay with HCC-2998 colon it was more than 76.5 µM; in the assay with HCT-116 colon it was 19.6 µM. Besides, the TGI in the assay on HT29 colon was 19.2 µM; in the assay on M14 melanoma, 43.3 µM; in the assay with MALME-3M melanoma it was 39 µM; in the assay on MCF7 breast, more than 100 µM; in the assay on MDA-MB-231 breast, more than 100 µM; in the assay on MDA-N it was more than 100 µM. The TGI in the assay with NCI-H522 lung was 6.35 µM; in the assay with OVCAR-4 ovarian it was more than 100 µM; in the assay on SK-MEL-2 melanoma, 39.2 µM; in the assay on SR leukemia, 65.2 µM; in the assay with T-47D breast, more than 100 µM; in the assay with UACC-257 melanoma, more than 95.4 µM. The TGI in the assay with UACC-62 melanoma came out at 42.3 µM.

As to `c1cc2nnc1SCCCSc1ccc(nn1)SCCCSc1ccc(nn1)SCCCS2`, the TGI with 786-0 renal, with A498 renal, in the assay with CCRF-CEM leukemia, in the assay with COLO 205 colon, in the assay with HCC-2998 colon and in the assay with HCT-116 colon was more than 100 µM in each case. For the same compound, the TGI in the assay on HT29 colon, in the assay with M14 melanoma, with MALME-3M melanoma, with MCF7 breast, in the assay on MDA-MB-231 breast and in the assay on MDA-N was more than 100 µM in each case. Moreover, the TGI in the assay with NCI-H522 lung, with OVCAR-4 ovarian, in the assay with SK-MEL-2 melanoma, in the assay on SR leukemia, in the assay with T-47D breast and in the assay on UACC-257 melanoma was more than 100 µM in each case. The compound also returned a total growth inhibition concentration (TGI) in the assay on UACC-62 melanoma of more than 100 µM.

As to `COC1(OC)N=C(N)C2(C#N)C3(C(=O)N(C(C)C)N=C3C)C12C#N` (centres undefined), the total growth inhibition concentration (TGI) in the assay with 786-0 renal, in the assay with A498 renal, in the assay with CCRF-CEM leukemia, with COLO 205 colon, in the assay on HCC-2998 colon and in the assay with HCT-116 colon was more than 100 µM throughout. Moreover, the TGI in the assay on HT29 colon, with M14 melanoma, with MALME-3M melanoma, in the assay with MCF7 breast, in the assay on MDA-MB-231 breast and in the assay on MDA-N was more than 100 µM each time. Further, the TGI in the assay with NCI-H522 lung, in the assay on OVCAR-4 ovarian, with SK-MEL-2 melanoma, in the assay on SR leukemia, with T-47D breast and with UACC-257 melanoma was more than 100 µM in each case. This compound displayed a TGI with UACC-62 melanoma of more than 100 µM.

On to `CCC/C(Cl)=N\OC(=O)Nc1cccc(C(F)(F)F)c1`, for which the TGI in the assay with 786-0 renal came to 29.5 µM; in the assay on A498 renal it was 32 µM; in the assay with CCRF-CEM leukemia, 5.67 µM; with COLO 205 colon it was 8.51 µM; in the assay on HCC-2998 colon, 33.4 µM; in the assay on HCT-116 colon, 34.9 µM. Further, the TGI in the assay with HT29 colon came to 50.3 µM; in the assay on M14 melanoma, 32.7 µM; in the assay on MALME-3M melanoma, 26.4 µM; with MCF7 breast, 30.1 µM; with MDA-MB-231 breast, 33.8 µM; with MDA-N, 31.9 µM. In addition, the TGI worked out at 3.42 µM in the assay with NCI-H522 lung; 38.5 µM in the assay with OVCAR-4 ovarian; 31.4 µM in the assay on SK-MEL-2 melanoma; 5.93 µM in the assay with SR leukemia; 55.3 µM in the assay with T-47D breast; 31.6 µM in the assay on UACC-257 melanoma. The total growth inhibition concentration (TGI) in the assay on UACC-62 melanoma turned out to be 55.3 µM.

As for `CCOC(=O)C1C(c2ccc(O)c(OC)c2)c2c([nH][nH]c2=O)CC1(C)O` (centres undefined), the TGI in the assay with 786-0 renal, in the assay on A498 renal, with CCRF-CEM leukemia, in the assay with COLO 205 colon, in the assay on HCC-2998 colon and in the assay on HCT-116 colon was more than 100 µM in each case. For the same compound, the TGI in the assay on HT29 colon, with M14 melanoma, with MALME-3M melanoma, in the assay on MCF7 breast, in the assay on MDA-MB-231 breast and in the assay on MDA-N was more than 100 µM each time. For the same compound, the TGI in the assay on NCI-H522 lung, in the assay on OVCAR-4 ovarian, in the assay on SK-MEL-2 melanoma, in the assay on SR leukemia, in the assay with T-47D breast and with UACC-257 melanoma was more than 100 µM in each case. Moreover, the TGI in the assay on UACC-62 melanoma was more than 100 µM.

For the compound `COC(=O)/C=C(/C(=O)OC)c1cc2ccc3c([nH]c4ccccc43)c(C)c-2c1`, the TGI is 20.1 µM with 786-0 renal; 23.5 µM with A498 renal; 10.8 µM in the assay with CCRF-CEM leukemia; 3.3 µM with COLO 205 colon; 13 µM in the assay with HCC-2998 colon; 16.3 µM in the assay on HCT-116 colon. Also, the total growth inhibition concentration (TGI) with HT29 colon worked out at 8.9 µM; with M14 melanoma it was 16 µM; with MALME-3M melanoma, 19.6 µM; in the assay with MCF7 breast, 13.3 µM; with MDA-MB-231 breast, 15.1 µM; with MDA-N, 9.9 µM. The TGI in the assay on NCI-H522 lung is 5.83 µM; in the assay with OVCAR-4 ovarian, 69.3 µM; in the assay on SK-MEL-2 melanoma it was 26.8 µM; in the assay with SR leukemia, 8.59 µM; in the assay on T-47D breast, more than 100 µM; with UACC-257 melanoma, 28.2 µM. Besides, the total growth inhibition concentration (TGI) in the assay with UACC-62 melanoma is 17.8 µM.

`O=C1C(Cl)C2(CC(/C=C/c3ccccc3O)=NN2c2cccc(S(=O)(=O)O)c2)N1c1nc2ccccc2s1` (centres undefined): the TGI in the assay with 786-0 renal was found to be 30 µM; with A498 renal, 50.5 µM; in the assay on CCRF-CEM leukemia, 34.7 µM; in the assay on COLO 205 colon, 38.7 µM; in the assay with HCC-2998 colon it was 29 µM; in the assay with HCT-116 colon, 31 µM. Also, the TGI with HT29 colon was found to be 39 µM; with M14 melanoma, 37.8 µM; with MALME-3M melanoma, 27.1 µM; in the assay on MCF7 breast, 31.8 µM; in the assay with MDA-MB-231 breast, 74.6 µM; in the assay on MDA-N it was 47 µM. The TGI turned out to be 14.6 µM in the assay on NCI-H522 lung; 27.4 µM with OVCAR-4 ovarian; 40.8 µM with SK-MEL-2 melanoma; 58 µM in the assay with SR leukemia; 37.4 µM in the assay on T-47D breast; 42 µM in the assay with UACC-257 melanoma. For the same compound, in the assay on UACC-62 melanoma, the TGI was 30.9 µM.
